According to patent US11903386B2, “Strigolactone analogs and their usage in plant control” (King Abdullah University of Science and Technology, priority 2016, dated 2024):
“Also recorded” adds a separate entry of the source.

Experiments:
[1] = tested on: Striga; test: Trial in Burkina Faso, wooden boxes with artificially infested soil and pearl millet host; type: in vivo; settings: 1×1 m^2 boxes, artificially infested soil, pearl millet host
Method: Very recently, the activity of MP1 was also evaluated in a trial conducted in Burkina Faso, in which 1×1 m^2 wooden boxes were used which were filled with artificially infested soil and pearl millet as a host.

[2] = tested on: P. ramosa seeds; test: P. ramosa seed germination bioassay; type: in vivo; settings: 1.0 μM
Method: Parasitic weed seeds (S. hermonthica and P. ramosa) germination activity was recorded as described previously (Jamil et al., 2012). Six pre-conditioned seed discs were placed in a 90 mm petri-dish containing a filter paper ring wetted with 0.9 ml sterile MilliQ water. […] GR24 solutions with equal concentrations and sterile MilliQ water were included as a positive and negative control, respectively. After application, seeds were incubated at 30° C./25° C. in the dark for two days. Germination (seeds with radical emerging through seed coat) was scored under a binocular microscope, and germination rate (%) was calculated.

[3] = tested on: rice seedlings (Shiokari, d3, d10); test: Growth and fresh biomass of hydroponically grown rice seedlings; type: in vivo; settings: 2.5 μM, twice a week for three weeks
Method: Rice seeds (WT, d3, d10) were surface-sterilized by washing with 70% ethanol for 1 min and then with 2.5% sodium hypochlorite for 15 min. Seeds were then rinsed thoroughly with sterile MilliQ water and incubated in water for 2 days at 30° C. in the dark. Pre-germinated seeds were transferred to filter papers containing ½ strength MS medium in 90 mm petri dishes and incubated at 30° C. under fluorescent white light (130-180 μM m^−2 s^−1) for one week. Seven day-old seedlings were transferred to 50 ml falcon tubes (one seedling per tube) containing modified half-strength Hoagland nutrient solution and grown in greenhouse. Plants were treated with MPs at 2.5 μM-2.5×10-7 μM, using GR24 as positive control. The compounds were applied six times, twice a week. Number of tillers per plant, plant height and fresh biomass were measured at final harvest.

[4] = tested on: rice leaf segments; test: Dark-induced leaf senescence of rice leaf segments; type: in vivo, O. sativa, var. Shiokari
Method: One week old rice (O. sativa, var. Shiokari) seedlings were established as mentioned above. Uniform seedlings were transferred to 50 ml tubes containing half strength Hoaglands nutrient solution for 7 days and grown in an incubator under white fluorescent light (130-180 μM m^−2 s^−1) with 16 h:8 h (L/D) at 28° C. for one week. Leaf segments of 2 cm were cut from middle part of third leaves of rice plants. Each segment was put in a well (in 24-well plates) containing 2 ml of 2.5 mM MES buffer with 0.05% Tween-20, and incubated at 30° C. in the dark for 7 days. After application of MPs, color change, chlorophyll content, ion leakage and gene expression were monitored daily for 7 days.

| SMILES | Germination activity compared with GR24 [1] | P. ramosa seed germination activity [2] | Growth, senescence symptoms and biomass of rice seedlings [3] | Transcript levels of Senescence Associated Genes Osl20 and Osl295 ([4]; after 5 days of treatment) | Change in leaf color, time relative to control ([4]; dark, leaf segments) | Change in leaf color, day observed ([4]; dark, leaf segments monitored 7 days) | Ion leakage compared to the control ([4]; first five days) | Ion leakage compared to the control ([4]; sixth and seventh day) | Chlorophyll content ([4]; third day) |
| --- | --- | --- | --- | --- | --- | --- | --- | --- | --- |
| COC(=O)/C(=C/OC1C=C(C)C(=O)O1)c1ccc([N+](=O)[O-])cc1 (racemic) [MP1, (E)-methyl 3-(4-methyl-5-oxo-2,5-dihydrofuran-2-yloxy)-2-(4-nitrophenyl)acrylate] | significantly higher germination activity than GR24 | much higher activity; also recorded: quite similar to that of GR24 | – | – | – | – | – | – | – |
| COC(=O)/C(=C/OC1C=C(C)C(=O)O1)c1ccccc1 (racemic) [MP3, (E)-methyl 3-(4-methyl-5-oxo-2,5-dihydrofuran-2-yloxy)-2-phenylacrylate] | – | – | stunted the growth and caused senescence symptoms; also recorded: growth retardation and senescence | more pronounced in MP3 treated samples | about two days earlier than the control | already on the third day after treatment | did not detect a difference | striking increase | clear reduction |
